{"source": "paper PMC5391474", "about": "“Investigation of the Role of Protein Kinase D in Human Rhinovirus Replication” (Journal of Virology, 2017)", "assay_in_all_cases": "biochemical", "set-up_in_all_cases": "in vitro kinase selectivity panel, protein and lipid kinases, single concentration, ATP at Km", "conditions_in_all_cases": "ATP at Km", "key": {"Abl(h)": {"molecular_target": "T1, Abl(h) (Homo sapiens, UniProt P00519)", "T1 construct": "gene ABL1", "procedure": "(§1) CRT0066101 was described previously ([48]) and was purchased for this study from Tocris, with a purity of 99.9%. CRT0066101 (XX-209) and compound XX-050 were synthesized as previously described ([68]). CRT0066051 (Y-095) was also synthesized as previously described ([69]). […] CRT0066101 can also be obtained in larger quantities from Ximbio. Inhibitors were tested in in vitro PKD kinase assays and cellular assays on PANC1 cells as previously described ([48]). The selectivity of the three PKD inhibitors was determined against a panel of protein and lipid kinases by Eurofins and the MRC PPU International Centre for Kinase Profiling (http://www.kinase-screen.mrc.ac.uk), respectively. Each inhibitor was tested at a single concentration of 1 μM and at an ATP concentration equivalent to the Km for each kinase. Having shown that HRV infection appears to activate PKD, we went on to explore the influence of chemical inhibitors of PKD on HRV replication. The compound CRT0066101 is a specific and potent PKD inhibitor that has been used in studies exploring its potential as an anticancer target ([48], [51]). This inhibitor has a 50% inhibitory concentration (IC50) of 1 nM against purified PKD in biochemical assays and a 50% effective concentration (EC50) of 1 μM in a cell-based assay (Table 1). We pretreated HeLa cells with increasing concentrations of the drug for 1 h followed by infection with HRV16. Viral replication was subsequently measured at 6 hpi by quantitative real-time PCR (qRT-PCR) (Fig. 2A) and by Western blotting using an antibody against the viral nonstructural protein 2C (Fig. 2B). […] Furthermore, we tested two novel and structurally different PKD inhibitors (CRT0066051 and XX-050) (Table 1) and confirmed that they too inhibited HRV 2C expression although with different potencies (Fig. 2D). Kinase selectivity profiling of all three PKD inhibitors was performed against a panel of protein and lipid kinases at a drug concentration of 1 μM and at an ATP concentration equivalent to the Km of each kinase (see Table S1 in the supplemental material). […] Since PKD is known to be involved in regulating the architecture of the Golgi apparatus, we confirmed the pharmacodynamic effect of these inhibitors by demon"}, "CK1γ3(h)": {"molecular_target": "T2, CK1γ3(h) (Homo sapiens, UniProt Q9Y6M4)", "T2 construct": "gene CSNK1G3", "procedure": "as §1"}, "DDR2(h)": {"molecular_target": "DDR2(h) (Homo sapiens, UniProt Q16832)", "procedure": "as §1"}, "DGKZ": {"molecular_target": "DGKZ (Homo sapiens, UniProt Q13574)", "sequence (Q13574 whole entry)": "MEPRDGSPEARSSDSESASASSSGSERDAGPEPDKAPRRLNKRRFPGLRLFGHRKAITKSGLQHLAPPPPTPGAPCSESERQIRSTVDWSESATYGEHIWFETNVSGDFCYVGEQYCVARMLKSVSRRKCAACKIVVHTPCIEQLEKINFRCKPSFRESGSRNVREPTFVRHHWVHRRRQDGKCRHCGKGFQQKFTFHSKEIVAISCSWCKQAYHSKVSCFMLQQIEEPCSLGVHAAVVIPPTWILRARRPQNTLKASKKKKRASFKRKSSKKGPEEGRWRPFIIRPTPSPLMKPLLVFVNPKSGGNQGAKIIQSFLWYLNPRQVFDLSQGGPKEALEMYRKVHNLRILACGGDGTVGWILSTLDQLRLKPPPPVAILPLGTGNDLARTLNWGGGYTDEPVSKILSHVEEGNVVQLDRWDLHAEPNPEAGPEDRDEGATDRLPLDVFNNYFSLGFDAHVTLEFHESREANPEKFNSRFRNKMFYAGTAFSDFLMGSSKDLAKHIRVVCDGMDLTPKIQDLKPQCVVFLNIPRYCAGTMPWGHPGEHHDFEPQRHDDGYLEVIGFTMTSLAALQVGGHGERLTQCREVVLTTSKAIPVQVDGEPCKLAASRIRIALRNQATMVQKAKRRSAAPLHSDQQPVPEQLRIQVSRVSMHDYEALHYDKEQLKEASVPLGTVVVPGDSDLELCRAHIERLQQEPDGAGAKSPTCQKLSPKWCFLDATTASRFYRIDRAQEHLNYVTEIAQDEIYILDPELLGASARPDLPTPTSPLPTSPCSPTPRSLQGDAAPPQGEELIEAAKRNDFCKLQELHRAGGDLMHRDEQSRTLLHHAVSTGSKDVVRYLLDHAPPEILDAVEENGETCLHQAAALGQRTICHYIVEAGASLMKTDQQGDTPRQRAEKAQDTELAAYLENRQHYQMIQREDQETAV", "procedure": "as §1"}, "EGFR(T790M)(h)": {"molecular_target": "EGFR(T790M)(h) (Homo sapiens, UniProt P00533, T790M)", "procedure": "as §1"}, "ErbB4(h)": {"molecular_target": "ErbB4(h) (Homo sapiens, UniProt Q15303)", "procedure": "as §1"}, "FAK(h)": {"molecular_target": "T3, FAK(h) (Homo sapiens, UniProt Q05397)", "T3 construct": "gene PTK2", "procedure": "as §1"}, "Fes(h)": {"molecular_target": "Fes(h) (Homo sapiens, UniProt P07332)", "procedure": "as §1"}, "Fms(h)": {"molecular_target": "T4, Fms(h) (Homo sapiens, UniProt P07333)", "T4 construct": "gene CSF1R", "T4 sequence (P07333 whole entry)": "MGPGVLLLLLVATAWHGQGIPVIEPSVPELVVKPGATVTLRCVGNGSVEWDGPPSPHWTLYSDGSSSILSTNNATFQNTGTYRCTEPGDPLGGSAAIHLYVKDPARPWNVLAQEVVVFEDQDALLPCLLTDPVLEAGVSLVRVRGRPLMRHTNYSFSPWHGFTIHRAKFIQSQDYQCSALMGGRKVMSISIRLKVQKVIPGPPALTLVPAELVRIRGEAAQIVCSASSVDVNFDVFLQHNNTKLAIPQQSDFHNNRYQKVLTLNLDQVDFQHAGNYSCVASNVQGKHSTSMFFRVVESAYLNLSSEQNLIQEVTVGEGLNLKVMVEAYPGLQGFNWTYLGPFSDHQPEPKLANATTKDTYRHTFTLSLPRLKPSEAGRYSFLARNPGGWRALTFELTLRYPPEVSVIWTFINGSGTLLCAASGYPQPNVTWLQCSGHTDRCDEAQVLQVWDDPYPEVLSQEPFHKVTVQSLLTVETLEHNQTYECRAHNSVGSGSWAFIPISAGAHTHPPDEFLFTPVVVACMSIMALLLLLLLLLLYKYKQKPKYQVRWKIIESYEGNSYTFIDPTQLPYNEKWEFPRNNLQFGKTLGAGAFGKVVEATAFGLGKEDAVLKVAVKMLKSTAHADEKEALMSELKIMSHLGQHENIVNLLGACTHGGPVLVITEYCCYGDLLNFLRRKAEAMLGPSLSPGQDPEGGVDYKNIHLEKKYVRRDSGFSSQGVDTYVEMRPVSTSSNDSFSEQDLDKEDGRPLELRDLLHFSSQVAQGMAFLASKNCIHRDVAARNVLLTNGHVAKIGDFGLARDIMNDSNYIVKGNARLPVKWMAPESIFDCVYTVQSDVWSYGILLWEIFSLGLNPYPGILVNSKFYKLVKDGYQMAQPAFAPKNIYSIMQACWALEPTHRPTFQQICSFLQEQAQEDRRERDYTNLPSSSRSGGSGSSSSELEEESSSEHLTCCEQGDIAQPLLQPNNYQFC", "procedure": "as §1"}, "IKKα(h)": {"molecular_target": "T5, IKKα(h) (Homo sapiens, UniProt O15111)", "T5 construct": "gene CHUK", "T5 sequence (O15111 whole entry)": "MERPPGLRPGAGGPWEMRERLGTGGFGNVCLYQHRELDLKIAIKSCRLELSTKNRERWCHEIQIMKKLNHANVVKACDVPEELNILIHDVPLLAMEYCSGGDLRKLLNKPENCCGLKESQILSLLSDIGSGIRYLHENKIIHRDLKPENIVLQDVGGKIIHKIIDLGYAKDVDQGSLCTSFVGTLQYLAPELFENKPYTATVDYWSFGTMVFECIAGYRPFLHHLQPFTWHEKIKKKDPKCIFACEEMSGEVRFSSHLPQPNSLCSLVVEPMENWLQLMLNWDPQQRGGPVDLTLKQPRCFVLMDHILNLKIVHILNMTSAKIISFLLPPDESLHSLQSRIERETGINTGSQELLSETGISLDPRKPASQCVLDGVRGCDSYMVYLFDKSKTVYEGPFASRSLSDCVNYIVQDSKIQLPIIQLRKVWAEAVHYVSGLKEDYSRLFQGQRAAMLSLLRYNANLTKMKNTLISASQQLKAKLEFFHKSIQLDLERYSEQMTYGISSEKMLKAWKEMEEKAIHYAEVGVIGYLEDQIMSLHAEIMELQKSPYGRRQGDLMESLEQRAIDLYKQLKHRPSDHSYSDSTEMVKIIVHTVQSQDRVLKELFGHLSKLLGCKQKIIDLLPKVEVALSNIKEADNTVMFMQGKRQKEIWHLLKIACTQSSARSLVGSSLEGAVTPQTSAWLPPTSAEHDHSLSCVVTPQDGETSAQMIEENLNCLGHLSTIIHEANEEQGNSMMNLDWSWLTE", "procedure": "as §1"}, "MAPK2(h)": {"molecular_target": "T6, MAPK2(h) (Homo sapiens, UniProt P28482)", "T6 construct": "gene MAPK1", "T6 sequence (P28482 whole entry)": "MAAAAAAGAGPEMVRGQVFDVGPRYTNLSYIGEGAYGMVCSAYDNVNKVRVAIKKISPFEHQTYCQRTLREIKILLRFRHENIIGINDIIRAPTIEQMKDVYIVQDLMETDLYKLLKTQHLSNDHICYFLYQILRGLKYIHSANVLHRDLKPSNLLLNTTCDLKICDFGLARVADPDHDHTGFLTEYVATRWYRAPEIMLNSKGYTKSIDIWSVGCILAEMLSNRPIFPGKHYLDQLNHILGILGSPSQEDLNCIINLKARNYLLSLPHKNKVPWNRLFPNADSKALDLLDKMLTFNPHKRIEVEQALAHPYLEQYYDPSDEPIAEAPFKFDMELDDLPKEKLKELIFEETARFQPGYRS", "procedure": "as §1"}, "PIK3CB": {"molecular_target": "PIK3CB (Homo sapiens, UniProt P42338)", "procedure": "as §1"}, "PKCθ(h)": {"molecular_target": "T7, PKCθ(h) (Homo sapiens, UniProt Q04759)", "T7 construct": "gene PRKCQ", "T7 sequence (Q04759 whole entry)": "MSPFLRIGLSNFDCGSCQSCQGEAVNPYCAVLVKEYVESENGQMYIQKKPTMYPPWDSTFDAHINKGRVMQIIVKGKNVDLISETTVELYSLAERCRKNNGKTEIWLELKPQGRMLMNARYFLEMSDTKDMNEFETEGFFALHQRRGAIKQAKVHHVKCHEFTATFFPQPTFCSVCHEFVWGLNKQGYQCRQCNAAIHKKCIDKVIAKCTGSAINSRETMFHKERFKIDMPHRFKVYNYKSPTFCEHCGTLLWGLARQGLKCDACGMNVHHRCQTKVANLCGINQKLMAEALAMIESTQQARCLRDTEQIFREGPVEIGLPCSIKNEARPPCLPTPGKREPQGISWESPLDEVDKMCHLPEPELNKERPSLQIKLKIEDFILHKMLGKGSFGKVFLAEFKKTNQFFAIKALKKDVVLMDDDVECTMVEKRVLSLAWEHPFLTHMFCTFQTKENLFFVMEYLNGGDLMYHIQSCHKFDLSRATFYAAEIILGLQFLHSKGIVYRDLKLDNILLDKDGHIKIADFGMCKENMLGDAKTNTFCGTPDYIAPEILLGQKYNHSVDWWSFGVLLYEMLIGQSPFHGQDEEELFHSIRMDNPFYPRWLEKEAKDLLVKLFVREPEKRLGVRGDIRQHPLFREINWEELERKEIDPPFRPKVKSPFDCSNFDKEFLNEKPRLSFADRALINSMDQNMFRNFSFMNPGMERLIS", "procedure": "as §1"}, "PRK2(h)": {"molecular_target": "T8, PRK2(h) (Homo sapiens, UniProt Q16513)", "T8 construct": "gene PKN2", "procedure": "as §1"}, "ROCK-I(h)": {"molecular_target": "T9, ROCK-I(h) (Homo sapiens, UniProt Q13464)", "T9 construct": "gene ROCK1", "T9 sequence (Q13464 whole entry)": "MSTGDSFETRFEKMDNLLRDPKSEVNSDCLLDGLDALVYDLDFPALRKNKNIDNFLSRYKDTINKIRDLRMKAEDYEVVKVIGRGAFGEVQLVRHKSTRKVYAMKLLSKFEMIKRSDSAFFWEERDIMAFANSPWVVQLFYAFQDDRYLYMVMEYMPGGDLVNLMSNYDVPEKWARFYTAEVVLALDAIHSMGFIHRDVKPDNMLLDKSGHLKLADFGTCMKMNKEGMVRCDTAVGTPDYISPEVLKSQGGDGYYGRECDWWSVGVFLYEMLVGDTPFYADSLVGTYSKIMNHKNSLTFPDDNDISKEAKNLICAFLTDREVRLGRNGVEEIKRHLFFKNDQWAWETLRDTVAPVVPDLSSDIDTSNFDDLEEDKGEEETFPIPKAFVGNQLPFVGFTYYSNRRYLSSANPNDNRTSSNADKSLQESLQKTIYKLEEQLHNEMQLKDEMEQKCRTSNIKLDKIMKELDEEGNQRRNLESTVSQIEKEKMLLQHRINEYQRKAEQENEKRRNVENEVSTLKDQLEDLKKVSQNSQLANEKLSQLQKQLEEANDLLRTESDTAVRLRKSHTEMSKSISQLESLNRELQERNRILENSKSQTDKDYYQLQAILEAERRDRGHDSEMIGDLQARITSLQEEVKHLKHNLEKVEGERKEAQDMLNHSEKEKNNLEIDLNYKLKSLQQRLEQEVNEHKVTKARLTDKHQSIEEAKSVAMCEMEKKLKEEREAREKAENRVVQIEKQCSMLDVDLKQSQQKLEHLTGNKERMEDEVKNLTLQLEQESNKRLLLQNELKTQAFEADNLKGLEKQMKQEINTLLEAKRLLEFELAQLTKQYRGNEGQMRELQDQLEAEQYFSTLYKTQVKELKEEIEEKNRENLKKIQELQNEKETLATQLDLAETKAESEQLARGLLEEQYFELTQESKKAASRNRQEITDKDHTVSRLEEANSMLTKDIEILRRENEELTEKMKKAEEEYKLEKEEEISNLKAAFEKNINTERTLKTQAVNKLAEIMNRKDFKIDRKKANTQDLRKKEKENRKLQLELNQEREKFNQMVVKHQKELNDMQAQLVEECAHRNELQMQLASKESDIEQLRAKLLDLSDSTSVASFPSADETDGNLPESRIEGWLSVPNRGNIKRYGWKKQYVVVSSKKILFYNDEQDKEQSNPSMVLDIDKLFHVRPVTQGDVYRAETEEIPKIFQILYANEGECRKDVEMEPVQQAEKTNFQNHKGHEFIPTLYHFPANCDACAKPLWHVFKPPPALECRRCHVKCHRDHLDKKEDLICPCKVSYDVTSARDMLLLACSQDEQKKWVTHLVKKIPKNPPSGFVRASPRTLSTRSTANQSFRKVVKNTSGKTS", "procedure": "as §1"}, "Ros(h)": {"molecular_target": "T10, Ros(h) (Homo sapiens, UniProt P08922)", "T10 construct": "gene ROS1", "procedure": "as §1"}, "Snk(h)": {"molecular_target": "T11, Snk(h) (Homo sapiens, UniProt Q9NYY3)", "T11 construct": "gene PLK2", "procedure": "as §1"}, "Tie2 (h)": {"molecular_target": "T12, Tie2 (h) (Homo sapiens, UniProt Q02763)", "T12 construct": "gene TEK", "procedure": "as §1"}}}
{"smiles": "CC[C@@H](N)CNc1ccnc(-c2cc(-c3cnn(C)c3)ccc2O)n1", "note": "[CRT0066101]", "values": [{"measurement": "inhibition at 1 µM", "setting": "Abl(h)", "value": -13, "unit": "%"}, {"measurement": "inhibition at 1 µM", "setting": "CK1γ3(h)", "value": -3, "unit": "%"}, {"measurement": "inhibition at 1 µM", "setting": "DDR2(h)", "value": -3, "unit": "%"}, {"measurement": "inhibition at 1 µM", "setting": "DGKZ", "value": -1, "unit": "%"}, {"measurement": "inhibition at 1 µM", "setting": "EGFR(T790M)(h)", "value": -2, "unit": "%"}, {"measurement": "inhibition at 1 µM", "setting": "ErbB4(h)", "value": 3, "unit": "%"}, {"measurement": "inhibition at 1 µM", "setting": "FAK(h)", "value": -11, "unit": "%"}, {"measurement": "inhibition at 1 µM", "setting": "Fes(h)", "value": -20, "unit": "%"}, {"measurement": "inhibition at 1 µM", "setting": "Fms(h)", "value": 12, "unit": "%"}, {"measurement": "inhibition at 1 µM", "setting": "IKKα(h)", "value": 66, "unit": "%"}, {"measurement": "inhibition at 1 µM", "setting": "MAPK2(h)", "value": -9, "unit": "%"}, {"measurement": "inhibition at 1 µM", "setting": "PIK3CB", "value": -9, "unit": "%"}, {"measurement": "inhibition at 1 µM", "setting": "PKCθ(h)", "value": 6, "unit": "%"}, {"measurement": "inhibition at 1 µM", "setting": "PRK2(h)", "value": 77, "unit": "%"}, {"measurement": "inhibition at 1 µM", "setting": "ROCK-I(h)", "value": 4, "unit": "%"}, {"measurement": "inhibition at 1 µM", "setting": "Ros(h)", "value": -13, "unit": "%"}, {"measurement": "inhibition at 1 µM", "setting": "Snk(h)", "value": -1, "unit": "%"}, {"measurement": "inhibition at 1 µM", "setting": "Tie2 (h)", "value": 4, "unit": "%"}]}
